Data as given in the supplement of paper PMC10307832.

What was measured:
Assay in all cases: relative viability (nuclei count vs DMSO), 5 days (fraction); higher = more cells survive
Palbociclib + Olaparib = compound: CC(=O)c1c(C)c2cnc(Nc3ccc(N4CCNCC4)cn3)nc2n(C2CCCC2)c1=O [Palbociclib] + O=C(c1cc(Cc2n[nH]c(=O)c3ccccc23)ccc1F)N1CCN(C(=O)C2CC2)CC1 [Olaparib] (partner 8 µM)
In short: (§1)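 A single step with final 0.05% Triton X-100, 1% formaldehyde and 1 ug/ml Hoechst fixed the cells and stained nuclei 5 days after treatment. Lung cancer cell lines in 1536-well plates had been treated by pin tool the day after seeding with one drug alone or a fixed anchor-drug dose plus five library-drug doses (not always all listed) in √10 steps, and nuclei were counted on 4× images. Relative viability is the ratio of nuclei in treated wells to nuclei in vehicle wells, taken as the median of duplicate plates.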

Palbociclib + Vorinostat = compound: CC(=O)c1c(C)c2cnc(Nc3ccc(N4CCNCC4)cn3)nc2n(C2CCCC2)c1=O [Palbociclib] + O=C(CCCCCCC(=O)Nc1ccccc1)NO [Vorinostat] (partner 1 µM)
In short: as §1

Palbociclib + Tozasertib = compound: CC(=O)c1c(C)c2cnc(Nc3ccc(N4CCNCC4)cn3)nc2n(C2CCCC2)c1=O [Palbociclib] + Cc1cc(Nc2cc(N3CCN(C)CC3)nc(Sc3ccc(NC(=O)C4CC4)cc3)n2)n[nH]1 [Tozasertib] (partner 0.1 µM)
In short: as §1

Palbociclib + Trametinib = compound: CC(=O)c1c(C)c2cnc(Nc3ccc(N4CCNCC4)cn3)nc2n(C2CCCC2)c1=O [Palbociclib] + CC(=O)Nc1cccc(-n2c(=O)n(C3CC3)c(=O)c3c(Nc4ccc(I)cc4F)n(C)c(=O)c(C)c32)c1 [Trametinib] (partner 0.02 µM)
In short: as §1

Cell Line	relative viability (Palbociclib + Olaparib; first compound 0.01 µM)	relative viability (Palbociclib + Olaparib; first compound 0.1 µM)	relative viability (Palbociclib + Olaparib; first compound 0.3162 µM)	relative viability (Palbociclib + Olaparib; first compound 1 µM)	relative viability (Palbociclib + Vorinostat; first compound 0.01 µM)	relative viability (Palbociclib + Vorinostat; first compound 0.1 µM)	relative viability (Palbociclib + Vorinostat; first compound 0.3162 µM)	relative viability (Palbociclib + Vorinostat; first compound 1 µM)	relative viability (Palbociclib + Tozasertib; first compound 0.01 µM)	relative viability (Palbociclib + Tozasertib; first compound 0.03162 µM)	relative viability (Palbociclib + Tozasertib; first compound 0.1 µM)	relative viability (Palbociclib + Tozasertib; first compound 0.3162 µM)	relative viability (Palbociclib + Tozasertib; first compound 1 µM)	relative viability (Palbociclib + Trametinib; first compound 0.01 µM)	relative viability (Palbociclib + Trametinib; first compound 0.1 µM)	relative viability (Palbociclib + Trametinib; first compound 0.3162 µM)	relative viability (Palbociclib + Trametinib; first compound 1 µM)	relative viability (Palbociclib + Olaparib; first compound 0.03162 µM)	relative viability (Palbociclib + Vorinostat; first compound 0.03162 µM)	relative viability (Palbociclib + Trametinib; first compound 0.03162 µM)
NCI-H650	0.44	0.318	0.354	0.246	0.537	0.366	0.359	0.314	0.784	0.378	0.639	0.588	0.576	1.02	0.771	0.915	0.792			
Calu-6	0.612	0.511	0.528	0.417														0.549		
LCLC-97TM1	0.326	0.308	0.311	0.262	0.698	0.423	0.363	0.249	0.218	0.206	0.202	0.216	0.169	0.209	0.208	0.182	0.184			
NCI-H441	0.657	0.45	0.452	0.298	0.817	0.589	0.569	0.405	0.689	0.739	0.577	0.446	0.373	0.483	0.23	0.228	0.155	0.449	0.708	0.409
NCI-H522	0.642	0.689	0.678	0.616	0.912	0.906	1.03	0.802	0.604	0.517	0.573	0.469	0.539	0.818	0.776	0.797	0.853	0.612	0.536	0.576
NCI-H2347	0.606	0.564	0.51	0.49	0.558	0.424	0.487	0.4	0.639		0.542	0.565	0.361	0.295	0.244	0.249	0.272	0.549	0.603	0.292
NCI-H2228	0.724	0.55	0.64	0.465	0.566	0.649	0.717	0.398	0.247	0.235	0.247	0.261	0.23	0.606	0.494	0.522	0.483	0.624	0.673	0.373
NCI-H1355	0.796	0.673	0.65	0.621	0.619	0.548	0.629	0.465	0.613	0.521	0.583	0.556	0.454	0.433	0.422	0.391	0.363	0.734	0.578	0.448
HCC-44	0.945	1	0.965	1.01	1.09	1.15	1.03	1.13	0.871	0.781	1.1	1.1	1.11	1.07	1.02	0.987	1.1	0.952	1.08	1.1
NCI-H1650	0.795	0.551	0.642	0.513	0.607	0.523	0.39	0.31	0.48	0.317	0.44	0.337	0.338	0.623	0.39	0.58	0.411	0.562	0.558	0.575
NCI-H1944	0.411	0.404	0.341	0.339	0.579	0.399	0.475	0.343	0.254	0.242	0.293	0.245	0.229	0.399	0.396	0.37	0.342	0.397	0.456	0.389
COR-L 105	0.711	0.564	0.475	0.432	0.9	0.612	0.611	0.482	0.379	0.335	0.341	0.308	0.318	0.477	0.36	0.407	0.389	0.552	0.887	0.435
NCI-H1648	0.679	0.518	0.587	0.37	0.869	0.386	0.388	0.398	0.585		0.405	0.526	0.175	0.657	0.357	0.45	0.406	0.71	0.426	0.364
PC-14	0.31	0.311	0.214	0.176	0.804	0.576	0.673	0.416	0.589		0.523	0.55	0.4	0.742	0.512	0.466	0.273	0.296	0.629	0.528
NCI-H23	0.375	0.325	0.305	0.289	0.617	0.406	0.509	0.411	0.335		0.381	0.378	0.412	0.447	0.42	0.39	0.289	0.311	0.531	0.295
LOU-NH91	0.959	0.677	0.664	0.559	1.02	0.695	0.675	0.673	0.778	0.51	0.541	0.575	0.452	0.798	0.581	0.612	0.62	0.696	0.623	0.662
ChaGo-K-1	0.423	0.437	0.467	0.444	0.726	0.696	0.721	0.746	0.218	0.21	0.25	0.225	0.223	0.852	0.874	0.939	0.954			
HCC-827	0.62	0.477	0.563	0.443	0.863	0.787	0.636	0.598	0.424	0.4	0.358	0.389	0.366	0.545	0.449	0.476	0.399	0.573	0.65	0.52
COR-L23	0.312	0.233	0.194	0.175	0.461	0.328	0.244	0.223	0.197	0.146	0.16	0.157	0.124	0.666	0.362	0.434	0.209	0.271	0.346	0.521

Cell Line	relative viability (Palbociclib + Olaparib; first compound 0.01 µM)	relative viability (Palbociclib + Olaparib; first compound 0.1 µM)	relative viability (Palbociclib + Olaparib; first compound 0.3162 µM)	relative viability (Palbociclib + Olaparib; first compound 1 µM)	relative viability (Palbociclib + Vorinostat; first compound 0.01 µM)	relative viability (Palbociclib + Vorinostat; first compound 0.1 µM)	relative viability (Palbociclib + Vorinostat; first compound 0.3162 µM)	relative viability (Palbociclib + Vorinostat; first compound 1 µM)	relative viability (Palbociclib + Tozasertib; first compound 0.01 µM)	relative viability (Palbociclib + Tozasertib; first compound 0.03162 µM)	relative viability (Palbociclib + Tozasertib; first compound 0.1 µM)	relative viability (Palbociclib + Tozasertib; first compound 0.3162 µM)	relative viability (Palbociclib + Tozasertib; first compound 1 µM)	relative viability (Palbociclib + Trametinib; first compound 0.01 µM)	relative viability (Palbociclib + Trametinib; first compound 0.1 µM)	relative viability (Palbociclib + Trametinib; first compound 0.3162 µM)	relative viability (Palbociclib + Trametinib; first compound 1 µM)	relative viability (Palbociclib + Olaparib; first compound 0.03162 µM)	relative viability (Palbociclib + Vorinostat; first compound 0.03162 µM)	relative viability (Palbociclib + Trametinib; first compound 0.03162 µM)
SK-MES-1	0.695	0.446	0.343	0.205	1.08	0.735	0.763	0.395	0.858	0.76	0.595	0.502	0.29	0.562	0.469	0.432	0.313	0.57	0.902	0.463
NCI-H2170	0.675	0.551	0.488	0.436	0.841	0.694	0.675	0.447	0.697	0.75	0.737	0.77	0.655	0.968	0.889	0.882	0.721	0.61	0.515	0.838
LC-2-ad	0.744	0.688	0.642	0.553	0.712	0.561	0.561	0.475	0.461		0.453	0.428	0.439	0.966	0.889	0.804	0.666	0.71	0.351	0.884
NCI-H1793	1.03	0.832	0.81	0.501	0.824	0.531	0.664	0.287	0.358		0.318	0.339	0.276	0.438	0.44	0.322	0.281	0.628	0.564	0.431
NCI-H1915	0.244	0.257	0.258	0.244	0.487	0.438	0.525	0.378	0.435	0.36	0.48	0.471	0.452	0.29	0.297	0.289	0.245			
NCI-H322M	0.762	0.702	0.599	0.445	0.837	0.602	0.55	0.454	0.471	0.448	0.403	0.412	0.343	0.499	0.491	0.482	0.51	0.709	0.784	0.474
NCI-H1792	0.476	0.384	0.348	0.222										0.501	0.323	0.338	0.213	0.266		0.376
PC-3 [JPC-3]	1.16	0.816	0.872	0.526	0.817	0.699	0.507	0.381	0.918	0.778	0.823	0.774	0.596	0.657	0.534	0.703	0.597	0.903	0.673	0.634
NCI-H2405	0.842	0.765	0.682	0.527	1.01	0.82	0.837	0.631	0.75	0.651	0.663	0.574	0.509	0.614	0.531	0.555	0.447	0.841	1	0.509
EPLC-272H	0.779	0.681	0.615	0.313	0.535	0.46	0.401	0.245	0.326		0.331	0.339	0.42	0.286	0.268	0.244	0.25	0.807	0.647	
EMC-BAC-2	0.511	0.506	0.51	0.448	0.461	0.379	0.376	0.308	0.24	0.298	0.277	0.285	0.29	0.815	0.718	0.694	0.512	0.48	0.39	0.797
NCI-H3122	0.596	0.635	0.584	0.528	0.931	0.879	0.703	0.613	0.344	0.212	0.231	0.234	0.143	0.212	0.232	0.192	0.158	0.576	0.632	0.207
ABC-1	0.89	0.602	1.04	0.898	1.18	0.552	1.03	0.453	0.161	0.184	0.18	0.215	0.217					0.757	1.03	
201T	0.817	0.781	0.684	0.65	1.02	0.837	0.752	0.532	0.984	0.906	0.914	0.797	0.614	0.733	0.71	0.692	0.609	0.819	0.567	0.684
NCI-H1299	0.925	0.886	0.79	0.65														0.924		
A549	0.345	0.282	0.3	0.231														0.0522		
NCI-H1703	0.417	0.293	0.199	0.203														0.339		
IA-LM	0.755	0.548	0.474	0.268	0.955	0.661	0.724	0.312										0.643		
